From paper PMC11766267 (International Journal of Molecular Sciences, 2025)
Several values for one entry are separate records, joined by “and”; a condition that tells them apart may be missing. Equal entries are not always repeated. Where two headings read alike, the source gives them in different places.

Key:
[1] = system: HCT-116, MDA-MB-231, HeLa, and MCF-7; experiment: MTT cytotoxicity assay, ranges stated over several cell lines; type: cell-based; details: Homo sapiens
Method: (§1) Subsequently, 100 µL of dimethyl sulfoxide was introduced to dissolve the insoluble formazan.

[2] = MTT cytotoxicity assay, normal cell line WI-38; type: cell-based, human; details: human, WI-38 cells (normal human lung fibroblasts), normal (non-cancer) cell line, 24 h treatment
Method: as §1

[3] = biological target: CDK2 (Homo sapiens, UniProt P24941); experiment: In vitro protein kinase inhibition assay (ELISA kit), CDK2
[4] = system: HCT-116; experiment: MTT cytotoxicity assay, HCT-116; type: cell-based; details: Homo sapiens, 24 h treatment, mean ± SD of triplicate
Method: as §1

[5] = system: MCF-7a; experiment: In vitro anti-estrogenic activity assay, MCF-7a
[6] = system: MCF-7; experiment: MTT cytotoxicity assay, MCF-7; type: cell-based, human; details: Homo sapiens, MCF7, 24 h, 24 h treatment, mean ± SD of triplicate
Method: as §1

[7] = system: HeLa; experiment: MTT cytotoxicity assay, HeLa; type: cell-based; details: Homo sapiens, 24 h treatment, mean ± SD of triplicate
Method: as §1

[8] = biological target: VEGFR-2 (Homo sapiens, UniProt P35968); experiment: In vitro protein kinase inhibition assay (ELISA kit), VEGFR-2; details: individual Data 1-3
VEGFR-2, sequence (P35968 20-1356): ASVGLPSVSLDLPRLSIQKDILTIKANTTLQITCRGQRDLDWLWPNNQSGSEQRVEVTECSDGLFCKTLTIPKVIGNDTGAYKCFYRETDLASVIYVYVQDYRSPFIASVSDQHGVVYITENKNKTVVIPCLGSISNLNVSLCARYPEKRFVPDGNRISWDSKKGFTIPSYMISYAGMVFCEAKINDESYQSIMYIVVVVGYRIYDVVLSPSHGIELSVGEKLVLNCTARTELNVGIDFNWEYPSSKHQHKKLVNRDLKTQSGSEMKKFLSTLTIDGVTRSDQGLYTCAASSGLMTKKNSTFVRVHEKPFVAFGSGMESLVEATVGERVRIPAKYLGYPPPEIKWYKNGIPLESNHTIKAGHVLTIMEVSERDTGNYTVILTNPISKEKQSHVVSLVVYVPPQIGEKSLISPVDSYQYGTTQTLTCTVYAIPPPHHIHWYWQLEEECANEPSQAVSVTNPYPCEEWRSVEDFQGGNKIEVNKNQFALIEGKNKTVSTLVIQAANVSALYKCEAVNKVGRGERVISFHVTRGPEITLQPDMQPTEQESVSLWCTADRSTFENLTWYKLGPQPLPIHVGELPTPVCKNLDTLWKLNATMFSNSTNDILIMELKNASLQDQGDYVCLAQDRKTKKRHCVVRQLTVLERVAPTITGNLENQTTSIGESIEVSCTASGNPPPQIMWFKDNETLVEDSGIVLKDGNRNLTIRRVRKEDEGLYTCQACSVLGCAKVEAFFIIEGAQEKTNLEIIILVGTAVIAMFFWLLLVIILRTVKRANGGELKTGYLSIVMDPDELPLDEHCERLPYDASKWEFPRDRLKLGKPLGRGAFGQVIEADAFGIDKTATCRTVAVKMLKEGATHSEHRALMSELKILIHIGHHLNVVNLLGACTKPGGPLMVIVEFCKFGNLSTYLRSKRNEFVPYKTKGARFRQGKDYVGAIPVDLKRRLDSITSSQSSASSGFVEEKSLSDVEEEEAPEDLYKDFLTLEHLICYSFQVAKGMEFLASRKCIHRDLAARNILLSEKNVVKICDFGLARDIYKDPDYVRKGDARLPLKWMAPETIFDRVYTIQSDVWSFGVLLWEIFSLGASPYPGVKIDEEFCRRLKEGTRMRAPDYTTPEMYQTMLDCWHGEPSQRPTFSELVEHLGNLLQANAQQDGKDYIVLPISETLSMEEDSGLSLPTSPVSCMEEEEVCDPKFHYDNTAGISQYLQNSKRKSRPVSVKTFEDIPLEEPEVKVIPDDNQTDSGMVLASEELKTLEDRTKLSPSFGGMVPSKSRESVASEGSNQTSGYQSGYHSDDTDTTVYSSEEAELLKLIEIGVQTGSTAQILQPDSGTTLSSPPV

[9] = system: MDA-MB-231; experiment: MTT cytotoxicity assay, MDA-MB-231; type: cell-based; details: Homo sapiens, 24 h treatment, mean ± SD of triplicate
Method: as §1

[10] = system: MCF-7; experiment: In vitro anti-estrogenic activity assay, MCF-7
[11] = biological target: T1, aromatase (CYP19A, EC 1.14.14.14) (Homo sapiens, UniProt P11511); experiment: biochemical; details: individual Data 1-3
T1 construct: Microsomal samples were isolated from tissue using the Microsome Isolation Kit; tissue BioVision K983-100; host or cells: microsomes from an unnamed tissue
T1 sequence (P11511 1-503): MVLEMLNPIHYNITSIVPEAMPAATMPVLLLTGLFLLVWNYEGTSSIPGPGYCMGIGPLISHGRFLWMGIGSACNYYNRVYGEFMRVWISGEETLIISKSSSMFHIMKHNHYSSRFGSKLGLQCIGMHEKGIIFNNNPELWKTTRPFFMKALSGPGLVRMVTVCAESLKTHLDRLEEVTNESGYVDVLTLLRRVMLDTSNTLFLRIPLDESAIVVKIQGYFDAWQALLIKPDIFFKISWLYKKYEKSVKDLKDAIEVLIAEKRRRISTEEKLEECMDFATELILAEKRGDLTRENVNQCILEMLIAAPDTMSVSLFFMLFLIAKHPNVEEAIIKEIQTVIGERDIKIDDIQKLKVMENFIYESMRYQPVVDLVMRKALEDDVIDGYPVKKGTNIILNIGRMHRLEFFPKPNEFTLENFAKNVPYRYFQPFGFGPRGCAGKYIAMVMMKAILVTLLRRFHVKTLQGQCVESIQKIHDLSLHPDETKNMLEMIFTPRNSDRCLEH
Method: In vitro aromatase assay was performed using the BioVision Aromatase Activity Assay Kit (Catalog # K983-100; BioVision, Milpitas, CA, USA). Microsomal samples were isolated from tissue using the Microsome Isolation Kit (Cat. #K249; BioVision, Milpitas, CA, USA). A standard curve was established by diluting the Fluorescence Standard provided in the kit to create a 0.5 pmole/µL solution, followed by setting up a series of standards in a white 96-well plate, adjusting the total volume to 100 µL with aromatase assay buffer. For each reaction well, a 2X concentrated mix was prepared by adding 2–48 µL of the microsomal sample and 2 µL of the NADPH generating system, bringing the final volume to 50 µL with aromatase assay buffer. Background controls (no enzyme) and positive controls (with recombinant aromatase) were included. […] After a 10 min incubation at 37 °C, 30 µL of the substrate/NADP+ mixture was added to each well, and fluorescence was measured immediately in kinetic mode for 60 min at 37 °C. Finally, the change in fluorescence was calculated to determine the specific activity of aromatase using the formula provided in the kit protocol.

[12] = biological target: HER2 (Homo sapiens, UniProt P04626); experiment: In vitro protein kinase inhibition assay (ELISA kit), HER2
HER2, sequence (P04626 23-1255): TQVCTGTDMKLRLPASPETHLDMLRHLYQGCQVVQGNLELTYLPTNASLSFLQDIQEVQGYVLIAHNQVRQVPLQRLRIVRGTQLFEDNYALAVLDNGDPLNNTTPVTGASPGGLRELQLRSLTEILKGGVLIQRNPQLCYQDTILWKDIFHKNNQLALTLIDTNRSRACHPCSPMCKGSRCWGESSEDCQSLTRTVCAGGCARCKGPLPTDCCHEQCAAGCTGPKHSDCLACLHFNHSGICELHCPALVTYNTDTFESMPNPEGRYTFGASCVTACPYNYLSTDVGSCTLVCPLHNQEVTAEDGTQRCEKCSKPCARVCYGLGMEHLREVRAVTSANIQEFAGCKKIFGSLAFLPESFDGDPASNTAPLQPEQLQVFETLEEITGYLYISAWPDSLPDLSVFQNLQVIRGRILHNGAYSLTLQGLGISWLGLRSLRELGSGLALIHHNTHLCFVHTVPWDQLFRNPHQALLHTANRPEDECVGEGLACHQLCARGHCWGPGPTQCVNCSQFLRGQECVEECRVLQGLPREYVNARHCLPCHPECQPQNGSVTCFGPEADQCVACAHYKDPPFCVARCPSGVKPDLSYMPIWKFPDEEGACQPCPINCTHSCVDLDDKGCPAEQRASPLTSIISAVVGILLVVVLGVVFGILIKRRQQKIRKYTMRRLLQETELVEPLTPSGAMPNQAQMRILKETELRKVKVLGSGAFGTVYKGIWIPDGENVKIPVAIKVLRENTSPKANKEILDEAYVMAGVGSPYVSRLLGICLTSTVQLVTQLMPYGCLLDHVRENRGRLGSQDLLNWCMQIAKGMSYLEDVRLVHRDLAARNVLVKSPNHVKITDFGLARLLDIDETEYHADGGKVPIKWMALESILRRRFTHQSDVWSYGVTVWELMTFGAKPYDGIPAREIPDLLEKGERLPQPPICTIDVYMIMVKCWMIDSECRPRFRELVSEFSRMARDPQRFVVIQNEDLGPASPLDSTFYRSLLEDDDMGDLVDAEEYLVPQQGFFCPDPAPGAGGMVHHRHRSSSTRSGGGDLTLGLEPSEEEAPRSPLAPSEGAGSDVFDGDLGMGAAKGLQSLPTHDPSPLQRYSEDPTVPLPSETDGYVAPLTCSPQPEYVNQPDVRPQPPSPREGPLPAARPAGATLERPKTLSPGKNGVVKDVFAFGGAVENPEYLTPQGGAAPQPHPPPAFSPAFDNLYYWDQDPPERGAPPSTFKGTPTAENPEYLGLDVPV

[13] = cell count relative to the control (17β-E2)

Structure (SMILES): O=C(/C=C/c1ccc(O)cc1)c1ccccc1 [Compound 4b, (E)-3-(4-Hydroxyphenyl)-1-phenylprop-2-en-1-one]
- IC50 ([1]; HCT-116, MDA-MB-231, HeLa, MCF-7, range, read-out: IC50 values, range over the cancer cell lines tested): 2.08 to 34.9 µM
- IC50 ([1]; HCT-116 and HeLa, range over the compounds named, read-out: IC50 values, range against HCT-116 and HeLa): 6.59 to 22.6 µM
- IC50 ([1]; MDA-MB-231 and MCF-7, range over the compounds named, read-out: IC50 values, range against MDA-MB-231 and MCF-7): 2.08 to 13.6 µM
- IC50 at 24 h [2]: 54.6 ± 3.1 µM
- IC50 [3]: 0.288 ± 0.009 µM
- Inhibition (%) CDK2 ([3]; 0.01 µM, individual Data 1-3): 18.7% and 19.5%
- Inhibition (%) CDK2 ([3]; 0.1 µM, individual Data 1-3): 38.2% and 39.3%
- Inhibition (%) CDK2 ([3]; 1 µM, individual Data 1-3): 66.1% and 65.3%
- Inhibition (%) CDK2 ([3]; 10 µM, individual Data 1-3): 84.9% and 86%
- Inhibition (%) CDK2 ([3]; 100 µM, individual Data 1-3): 94.8%
- inhibition at 100 µM ([3]; read-out: Inhibition (%) CDK2): 93.8%
- inhibition at 0.01 µM ([3]; read-out: Inhibition (%) CDK2, 0.01 µM, individual Data 1-3): 19.1%
- inhibition at 0.1 µM ([3]; read-out: Inhibition (%) CDK2, 0.1 µM, individual Data 1-3): 38.5%
- inhibition at 1 µM ([3]; read-out: Inhibition (%) CDK2, 1 µM, individual Data 1-3): 66.9%
- inhibition at 10 µM ([3]; read-out: Inhibition (%) CDK2, 10 µM, individual Data 1-3): 85.4%
- inhibition at 100 µM ([3]; read-out: Inhibition (%) CDK2, 100 µM, individual Data 1-3): 94.1%
- IC50 [4]: 6.59 ± 0.3 µM
- Cell Proliferation MCF-7a % [5, 13]: 99%
- Cell Proliferation MCF-7a Cell Count ([5]; mean ± SD of triplicate): 20,669 ± 597
- IC50 [6]: 2.08 ± 0.1 µM
- IC50 [7]: 13.1 ± 1.1 µM
- Inhibition (%) VEGFR2 ([8]; 0.01 µM): 19.2% and 19.7%
- Inhibition (%) VEGFR2 ([8]; 0.1 µM): 48.2% and 48.6%
- Inhibition (%) VEGFR2 ([8]; 1 µM): 73.4%
- Inhibition (%) VEGFR2 ([8]; 10 µM): 89% and 90%
- Inhibition (%) VEGFR2 ([8]; 100 µM): 95.9%
- inhibition at 0.01 µM ([8]; read-out: Inhibition (%) VEGFR2, 0.01 µM): 19.4%
- inhibition at 0.1 µM ([8]; read-out: Inhibition (%) VEGFR2, 0.1 µM): 48.3%
- inhibition at 1 µM ([8]; read-out: Inhibition (%) VEGFR2, 1 µM): 73.8%
- inhibition at 10 µM ([8]; read-out: Inhibition (%) VEGFR2, 10 µM): 89.5%
- inhibition at 100 µM ([8]; read-out: Inhibition (%) VEGFR2, 100 µM): 96.1%
- IC50 [9]: 4.93 ± 0.3 µM
- Cell Proliferation MCF-7 % [10, 13]: 34%
- Cell Proliferation MCF-7 Cell Count ([10]; mean ± SD of triplicate): 6213 ± 221
- Reduction of growth/cell count (inhibition) in MCF-7 ([10]; relative to control): 66%
- Inhibition (%) Aromatase ([11]; 0.01 µM): 5.7% and 3.5% and 7.9%
- Inhibition (%) Aromatase ([11]; 0.1 µM): 9.9% and 14.2%
- Inhibition (%) Aromatase ([11]; 1 µM): 44% and 41.7%
- Inhibition (%) Aromatase ([11]; 10 µM): 72.5% and 78.6%
- Inhibition (%) Aromatase ([11]; 100 µM): 87% and 93.8%
- inhibition at 0.1 µM ([11]; read-out: Inhibition (%) Aromatase, 0.1 µM): 11%
- inhibition at 1 µM ([11]; read-out: Inhibition (%) Aromatase, 1 µM): 47.8%
- inhibition at 10 µM ([11]; read-out: Inhibition (%) Aromatase, 10 µM): 75%
- inhibition at 100 µM ([11]; read-out: Inhibition (%) Aromatase, 100 µM): 89%
- IC50 [12]: 0.387 ± 0.015 µM
- Inhibition (%) Her2 ([12]; 0.01 µM, individual Data 1-3): 8.76% and 10.34%
- Inhibition (%) Her2 ([12]; 0.1 µM, individual Data 1-3): 36.2% and 38.76%
- Inhibition (%) Her2 ([12]; 1 µM, individual Data 1-3): 71.3% and 70.87%
- Inhibition (%) Her2 ([12]; 10 µM, individual Data 1-3): 80.35% and 82.9%
- Inhibition (%) Her2 ([12]; 100 µM, individual Data 1-3): 93% and 95.67%
- inhibition at 0.01 µM ([12]; read-out: Inhibition (%) Her2, 0.01 µM, individual Data 1-3): 9.25%
- inhibition at 0.1 µM ([12]; read-out: Inhibition (%) Her2, 0.1 µM, individual Data 1-3): 37.7%
- inhibition at 1 µM ([12]; read-out: Inhibition (%) Her2, 1 µM, individual Data 1-3): 73%
- inhibition at 10 µM ([12]; read-out: Inhibition (%) Her2, 10 µM, individual Data 1-3): 81.6%
- inhibition at 100 µM ([12]; read-out: Inhibition (%) Her2, 100 µM, individual Data 1-3): 94.2%
